Format in all cases: cell-based
The subject of experiment [1] is Whole human saliva. As to the kind of experiment: In vitro malodor study: fermentation measured by pH. The note with it: pooled whole human saliva 2% in growth medium, incubated overnight, n=6. The procedure: (§1) An in vitro malodor study was conducted to evaluate the effect of various combinations of inulin and xylitol with zinc on oral malodor. Malodor is a combination of hydrogen sulfide and other volatile compounds. Microbial growth as measured by OD610, and fermentation, as measured by pH (confounding variables that impact oral malodor) were also evaluated.
(§2) Whole human saliva was collected from four donors, pooled and suspended in growth medium at a 2% final concentration. Stock, simple solutions of inulin, xylitol, and zinc citrate were prepared in growth medium and incorporated according to the experiment design specified in Table 3 (below). Treatment suspensions were incubated overnight in sterilized headspace vials.
The pH was measured using a standard pH meter by following validated procedures. Statistical significance of differences for all parameters was determined using one-way ANOVA test at 95% confidence level with a Tukey pairwise comparison test. Microbial growth and pH were used to stratify the treatments for hydrogen sulfide statistical analysis.

Experiment [2] concerns Whole human saliva. Put plainly: In vitro malodor study: hydrogen sulfide in headspace by SIFT-MS. To be noted: pooled whole human saliva 2% in growth medium, incubated overnight, n=6; groups stratified by growth and pH. The procedure:
as §1, §2
(§3) Malodor (i.e., hydrogen sulfide and other volatile compounds) in the culture vial headspace was quantified using validated procedures on Voice200ultra SIFT-MS (Syft Technologies, Christchurch, New Zealand). Following SIFT-MS analysis, microbial growth was quantified using optical density at λ=610 nm.
Hydrogen sulfide in headspace of salivary inoculum was quantified using SIFT-MS validated procedure.

For experiment [3], the system named is Whole human saliva. Put plainly: In vitro malodor study: microbial growth by OD610. The note with it: pooled whole human saliva 2% in growth medium, incubated overnight, n=6. The procedure:
as §1, §2, §3

For `O=C([O-])CC(O)(CC(=O)[O-])C(=O)[O-].O=C([O-])CC(O)(CC(=O)[O-])C(=O)[O-].[Zn+2].[Zn+2].[Zn+2]` [Example 5, zinc citrate], the “pH, Mean” value in experiment [1] is given as 6.5948. In addition, the “Hydrogen sulfide in headspace of salivary inoculum, Mean” value in experiment [2] was 21.86 ppb. For the same molecule, the “Microbial growth as observed by OD610, Mean” value in experiment [3] turned out to be 0.1407.
`OC[C@@H](O)[C@H](O)[C@@H](O)CO` [Example 4, xylitol]: in experiment [1], the “pH, Mean” value is reported as 5.9067. For the same molecule, the “Hydrogen sulfide in headspace of salivary inoculum, Mean” value in experiment [2] amounted to 2243 ppb. Further, in experiment [3], the “Microbial growth as observed by OD610, Mean” value is on record as 0.4182.

The values are drawn from patent US11918675B2, “Oral care compositions” (priority 2019, dated 2024).
